Assay results published in ChEMBL document CHEMBL6177928, “Probing structural requirements for thiazole-based mimetics of sunitinib as potent VEGFR-2 inhibitors” (RSC Med Chem, 2025).
Each block holds one compound with its values, some of them ahead of it. Activity calls are given as the source filed them. The rule behind the calls is not given here.

Assays:
[1] = system: MCF7; assay: cells; settings: Homo sapiens, MCF7, 48 h
Description: Antitumor activity against human MCF7 cells assessed as inhibition of cell viability incubated for 48 hrs by MTT assay

[2] = system: HCT-116; assay: cells; settings: Homo sapiens, HCT-116, 48 h
Description: Antitumor activity against human HCT-116 cells assessed as inhibition of cell viability incubated for 48 hrs by MTT assay

[3] = system: HepG2; assay: cells; settings: Homo sapiens, HepG2, 48 h
Description: Antitumor activity against human HepG2 cells assessed as inhibition of cell viability incubated for 48 hrs by MTT assay

[4] = system: HEp-2; assay: cells; settings: Homo sapiens, HEp-2, 48 h
Description: Antitumor activity against human HEp-2 cells assessed as inhibition of cell viability incubated for 48 hrs by MTT assay

[5] = system: HeLa; assay: cells; settings: Homo sapiens, 48 h
Description: Antitumor activity against human HeLa cells assessed as inhibition of cell viability incubated for 48 hrs by MTT assay

[6] = Cytotoxicity against human WI-38 cells incubated for 48 hrs by MTT assay; format: toxicity, cell-based
[7] = Cytotoxicity against human WISH cells incubated for 48 hrs by MTT assay; format: toxicity, cell-based
[8] = system: WISH; assay: Cytotoxicity against human WISH cells at up to 50 uM incubated for 48 hrs by MTT assay; format: toxicity, cell-based
[9] = system: WI-38; assay: Cytotoxicity against human WI-38 cells up to 50 uM incubated for 48 hrs by MTT assay; format: toxicity, cell-based; settings: wi-38, 48 h
[10] = system: HeLa; assay: Induction of cell cycle arrest in human HeLa cells assessed as accumulation of cells at S phase measured after 24 hrs by PI/Rnase staining based flow cytometry analysis (reference value: 31.04 %); format: functional
[11] = system: HCT-116; assay: Induction of cell cycle arrest in human HCT-116 cells assessed as accumulation of cells at G2/M phase measured after 24 hrs by PI/Rnase staining based flow cytometry analysis (reference value: 17.66 %); format: functional
[12] = system: HCT-116; assay: Induction of cell cycle arrest in human HCT-116 cells assessed as accumulation of cell debris measured after 24 hrs by PI/Rnase staining based flow cytometry analysis (reference value: 1.33%); format: functional
[13] = system: Ehrlich; assay: Antitumor activity against mouse EAC cells xenografted in Swiss albino mouse assessed as reduction in tumor volume at 10 mg/kg, ip measured after 5 to 20 days; format: functional, organism-based; settings: time 5-20 day
[14] = system: MCF7; assay: Induction of cell cycle arrest in human MCF7 cells assessed as accumulation of cells at G1 phase measured after 24 hrs by PI/Rnase staining based flow cytometry analysis (reference value: 56.37%); format: functional
[15] = system: HCT-116; assay: Induction of apoptosis in human HCT-116 cells assessed as necrotic cells incubated for 24 hrs by Annexin-V-FITC/PI staining based flow cytometry analysis (reference value: 1.34%); format: functional
[16] = system: HCT-116; assay: Induction of apoptosis in human HCT-116 cells assessed as late apoptotic cells incubated for 24 hrs by Annexin-V-FITC/PI staining based flow cytometry analysis (reference value: 0.16%); format: functional
[17] = system: HeLa; assay: Induction of apoptosis in human HeLa cells assessed as necrotic cells incubated for 24 hrs by Annexin-V-FITC/PI staining based flow cytometry analysis (reference value: 1.12 %); format: functional
[18] = system: HeLa; assay: Induction of cell cycle arrest in human HeLa cells assessed as accumulation of cells at G2/M phase measured after 24 hrs by PI/Rnase staining based flow cytometry analysis (reference value: 16.27 %); format: functional
[19] = system: HCT-116; assay: Induction of apoptosis in human HCT-116 cells assessed as early apoptotic cells incubated for 24 hrs by Annexin-V-FITC/PI staining based flow cytometry analysis (reference value: 0.44%); format: functional
[20] = system: Ehrlich; assay: Antitumor activity against mouse EAC cells xenografted in Swiss albino mouse assessed as tumor growth inhibition at 10 mg/kg, ip measured after 10 to 20 days; format: functional; settings: read-out: TGI, time 10-20 day
[21] = system: HCT-116; assay: Induction of cell cycle arrest in human HCT-116 cells assessed as accumulation of cells at G1 phase measured after 24 hrs by PI/Rnase staining based flow cytometry analysis (reference value: 47.28%); format: functional
[22] = system: HeLa; assay: Induction of apoptosis in human HeLa cells assessed as late apoptotic cells incubated for 24 hrs by Annexin-V-FITC/PI staining based flow cytometry analysis (reference value: 0.13 %); format: functional
[23] = system: HeLa; assay: Induction of cell cycle arrest in human HeLa cells assessed as accumulation of cells at G1 phase measured after 24 hrs by PI/Rnase staining based flow cytometry analysis (reference value: 52.69 %); format: functional
[24] = system: HeLa; assay: Induction of cell cycle arrest in human HeLa cells assessed as accumulation of cell debris measured after 24 hrs by PI/Rnase staining based flow cytometry analysis (reference value: 1.33%); format: functional
[25] = system: MCF7; assay: Induction of cell cycle arrest in human MCF7 cells assessed as accumulation of cells at S phase measured after 24 hrs by PI/Rnase staining based flow cytometry analysis (reference value: 28.77 %); format: functional
[26] = system: MCF7; assay: Induction of cell cycle arrest in human MCF7 cells assessed as accumulation of cell debris measured after 24 hrs by PI/Rnase staining based flow cytometry analysis (reference value: 1.61%); format: functional
[27] = system: MCF7; assay: Induction of apoptosis in human MCF7 cells assessed as early apoptotic cells incubated for 24 hrs by Annexin-V-FITC/PI staining based flow cytometry analysis (reference value: 0.51%); format: functional
[28] = system: MCF7; assay: Induction of apoptosis in human MCF7 cells assessed as necrotic cells incubated for 24 hrs by Annexin-V-FITC/PI staining based flow cytometry analysis (reference value: 1.57%); format: functional
[29] = system: HCT-116; assay: Induction of cell cycle arrest in human HCT-116 cells assessed as accumulation of cells at S phase measured after 24 hrs by PI/Rnase staining based flow cytometry analysis (reference value: 17.66 %); format: functional
[30] = system: HeLa; assay: Induction of apoptosis in human HeLa cells assessed as early apoptotic cells incubated for 24 hrs by Annexin-V-FITC/PI staining based flow cytometry analysis (reference value: 0.41 %); format: functional
[31] = system: MCF7; assay: Induction of cell cycle arrest in human MCF7 cells assessed as accumulation of cells at G2/M phase measured after 24 hrs by PI/Rnase staining based flow cytometry analysis (reference value: 14.86 %); format: functional
[32] = system: MCF7; assay: Induction of apoptosis in human MCF7 cells assessed as late apoptotic cells incubated for 24 hrs by Annexin-V-FITC/PI staining based flow cytometry analysis (reference value: 0.21%); format: functional

SMILES: N#Cc1sc(Nc2ccccc2)nc1Nc1cnc(N)s1
IC50 at 48 h [6]: > 100 µM
IC50 at 48 h [7]: 82.7 µM
IC50 [1]: 9.67 µM
Activity [8]: Non-toxic
Activity [9]: Non-toxic
IC50 [2]: 19.7 µM
IC50 [3]: 18.5 µM
IC50 [4]: 35.2 µM
IC50 [5]: 14 µM

SMILES: N#Cc1sc(Nc2ccccc2)nc1NC(=O)CN1CCN(Cc2ccccc2)CC1
IC50 [1]: 45.3 µM
IC50 [2]: 56.9 µM
IC50 [3]: 61.5 µM
IC50 [4]: 82.5 µM
IC50 [5]: 53.2 µM

SMILES: N#Cc1sc(Nc2ccccc2)nc1N1C(=N)SCC1=O
IC50 [1]: 22.5 µM
IC50 [2]: 44.1 µM
IC50 [3]: 35.3 µM
IC50 [4]: 69.5 µM
IC50 [5]: 31.4 µM

SMILES: N#Cc1sc(Nc2ccccc2)nc1NC(=O)CNNC(=O)c1ccc(Cl)cc1
IC50 [1]: 64.8 µM
IC50 [2]: 91.9 µM
IC50 [3]: 89.9 µM
IC50 [4]: > 100 µM
IC50 [5]: 86.8 µM

SMILES: COc1cccc2c1C(=O)c1c(O)c3c(c(O)c1C2=O)C[C@@](O)(C(=O)CO)C[C@@H]3O[C@H]1C[C@H](N)[C@H](O)[C@H](C)O1 [DOXORUBICIN]
IC50 at 48 h [7]: 3.34 µM
Activity [8]: Non-toxic
Activity [9]: Non-toxic

SMILES: N#Cc1sc(Nc2ccccc2)nc1NC(=O)CNNCC(=O)c1ccc(Cl)cc1
Activity [10]: 41.19%
IC50 at 48 h [6]: 60.8 µM
IC50 at 48 h [7]: 77.2 µM
IC50 [1]: 13.3 µM
Activity [11]: 16.05%
Activity [12]: 2.25%
Activity [8]: Non-toxic
Activity [13]: Active
Activity [14]: 63.61%
Activity [15]: 2.2%
Activity [16]: 8.29%
Activity [17]: 2.66%
Activity [18]: 15.23%
Activity [19]: 21.42%
inhibition in vivo at 10 mg/kg [20]: > 50%
Activity [21]: 51.96%
Activity [22]: 12.35%
Activity [23]: 43.64%
Activity [9]: Non-toxic
Activity [24]: 2.17%
Activity [25]: 23.84%
IC50 [2]: 11.6 µM
Activity [26]: 1.58%
Activity [27]: 6.22%
IC50 [3]: 15.2 µM
Activity [28]: 4.47%
IC50 [4]: 26.9 µM
Activity [29]: 31.99%
Activity [30]: 19.17%
Activity [31]: 12.55%
IC50 [5]: 10.6 µM
Activity [32]: 19.17%

SMILES: N#Cc1sc(Nc2ccccc2)nc1NC(=O)CN1CCN(c2cccc(Cl)c2)CC1
IC50 [1]: 59.1 µM
IC50 [2]: 60.4 µM
IC50 [3]: 76 µM
IC50 [4]: 87.9 µM
IC50 [5]: 72.1 µM

SMILES: N#Cc1sc(Nc2ccccc2)nc1NC(=O)CNNCc1ccccc1
IC50 at 48 h [6]: 75.6 µM
IC50 at 48 h [7]: 47.4 µM
IC50 [1]: 9.1 µM
Activity [8]: Non-toxic
Activity [9]: Non-toxic
IC50 [2]: 41.8 µM
IC50 [3]: 28.3 µM
IC50 [4]: 68.4 µM
IC50 [5]: 21.4 µM

SMILES: N#Cc1sc(Nc2ccccc2)nc1NC(=O)CNNC(=O)c1ccccc1
IC50 [1]: 50.4 µM
IC50 [2]: 68.6 µM
IC50 [3]: 74.3 µM
IC50 [4]: 92.2 µM
IC50 [5]: 69.8 µM

SMILES: N#Cc1sc(Nc2ccccc2)nc1Nc1cnc(N)o1
IC50 at 48 h [6]: 27.5 µM
IC50 at 48 h [7]: 24 µM
IC50 [1]: 14.8 µM
Activity [8]: Non-toxic
Activity [9]: Non-toxic
IC50 [2]: 25.8 µM
IC50 [3]: 20.1 µM
IC50 [4]: 39.7 µM
IC50 [5]: 16.4 µM

SMILES: CN1CCN(CC(=O)Nc2nc(Nc3ccccc3)sc2C#N)CC1
IC50 [1]: 52.7 µM
IC50 [2]: 70.5 µM
IC50 [3]: 73.2 µM
IC50 [4]: 94.7 µM
IC50 [5]: 67.8 µM

SMILES: CC(=O)N1CCN(CC(=O)Nc2nc(Nc3ccccc3)sc2C#N)CC1
IC50 [1]: 61.9 µM
IC50 [2]: 65.2 µM
IC50 [3]: 78.4 µM
IC50 [4]: 89 µM
IC50 [5]: 74.5 µM

SMILES: Cc1ccc(C(=O)CNNCC(=O)Nc2nc(Nc3ccccc3)sc2C#N)cc1
IC50 [1]: 84.1 µM
IC50 [2]: 81.6 µM
IC50 [3]: 96.2 µM
IC50 [4]: > 100 µM
IC50 [5]: > 100 µM

The remaining compounds from weak to strong by IC50 [1], led by results:

IC50 [1]: 72.8 µM
IC50 [2]: 86.5 µM
IC50 [3]: 91.5 µM
IC50 [4]: > 100 µM
IC50 [5]: 94.3 µM
SMILES: N#Cc1sc(Nc2ccccc2)nc1N1CSCC1=O

IC50 [1]: 43.2 µM
IC50 [2]: 55.2 µM
IC50 [3]: 57.3 µM
IC50 [4]: 80.4 µM
IC50 [5]: 49.8 µM
SMILES: N#Cc1sc(Nc2ccccc2)nc1NC(=O)CNNC(=O)c1ccc([N+](=O)[O-])cc1

IC50 [1]: 39 µM
IC50 [2]: 36.5 µM
IC50 [3]: 52.3 µM
IC50 [4]: 64.7 µM
IC50 [5]: 47 µM
SMILES: N#Cc1sc(Nc2ccccc2)nc1NC(=O)CNNCC(=O)c1ccccc1

IC50 [1]: 35.6 µM
IC50 [2]: 34.9 µM
IC50 [3]: 46.1 µM
IC50 [4]: 49.1 µM
IC50 [5]: 43.4 µM
SMILES: N#Cc1sc(Nc2ccccc2)nc1NC(=O)CNNCC(=O)c1ccc(Br)cc1

IC50 [1]: 34.1 µM
IC50 [2]: 37.6 µM
IC50 [3]: 49.4 µM
IC50 [4]: 67.2 µM
IC50 [5]: 45.5 µM
SMILES: N#Cc1sc(Nc2ccccc2)nc1NC(=O)CNNCC(=O)c1cc2ccccc2oc1=O

IC50 [1]: 33.5 µM
IC50 [2]: 31.1 µM
IC50 [3]: 38.5 µM
IC50 [4]: 45.8 µM
IC50 [5]: 36.7 µM
SMILES: N#Cc1sc(Nc2ccccc2)nc1NC(=O)CN1CCOCC1

IC50 [1]: 26.2 µM
IC50 [2]: 29.3 µM
IC50 [3]: 35.8 µM
IC50 [4]: 43.6 µM
IC50 [5]: 33.3 µM
SMILES: N#Cc1sc(Nc2ccccc2)nc1NC(=O)CNNCc1ccc([N+](=O)[O-])cc1

IC50 [1]: 19.1 µM
IC50 [2]: 51.7 µM
IC50 [3]: 42.4 µM
IC50 [4]: 73.5 µM
IC50 [5]: 38.5 µM
SMILES: N#Cc1sc(Nc2ccccc2)nc1NC(=O)CN1CCN(c2ccccc2)CC1

IC50 [1]: 16.7 µM
IC50 [2]: 14.2 µM
IC50 [3]: 30.5 µM
IC50 [4]: 28.8 µM
IC50 [5]: 22.8 µM
SMILES: N#Cc1sc(Nc2ccccc2)nc1NC(=O)CN1CCCCC1
IC50 at 48 h [6]: 23.7 µM
IC50 at 48 h [7]: 21.2 µM
Activity [8]: Non-toxic
Activity [9]: Non-toxic

IC50 [1]: 5.19 µM
IC50 [2]: 8.53 µM
IC50 [3]: 12.3 µM
IC50 [4]: 7.58 µM
IC50 [5]: 7.48 µM
SMILES: CCN(CC)CCNC(=O)c1c(C)[nH]c(/C=C2\C(=O)Nc3ccc(F)cc32)c1C [SUNITINIB]
